# Laboratory results: BindingDB's records for doi:10.1080/14756360310001613094 (Xiamen University, 2003)
# Biological target: T1, Polyphenol oxidase 2 (Agaricus bisporus, UniProt O42713)
# T1 sequence (O42713 whole entry): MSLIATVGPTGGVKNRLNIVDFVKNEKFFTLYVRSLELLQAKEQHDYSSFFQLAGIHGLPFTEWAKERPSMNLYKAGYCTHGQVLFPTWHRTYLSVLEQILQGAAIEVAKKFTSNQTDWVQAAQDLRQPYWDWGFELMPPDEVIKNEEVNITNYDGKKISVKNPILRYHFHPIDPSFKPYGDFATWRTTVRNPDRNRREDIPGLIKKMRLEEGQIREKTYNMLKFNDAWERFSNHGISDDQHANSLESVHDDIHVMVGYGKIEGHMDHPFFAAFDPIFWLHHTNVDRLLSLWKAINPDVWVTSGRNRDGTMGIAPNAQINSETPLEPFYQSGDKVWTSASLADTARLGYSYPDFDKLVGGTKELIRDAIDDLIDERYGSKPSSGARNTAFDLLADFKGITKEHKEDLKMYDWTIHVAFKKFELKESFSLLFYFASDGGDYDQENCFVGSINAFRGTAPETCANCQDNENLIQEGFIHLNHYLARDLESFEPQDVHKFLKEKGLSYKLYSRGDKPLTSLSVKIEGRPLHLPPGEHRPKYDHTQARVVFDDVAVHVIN
# Assay: Inhibition Assay
# Excerpt: Inhibition of alklbenzaldehydes on tyrosinase enzyme.
SMILES,IC50 [µM],Ki [µM]
"CCCc1ccc(C=O)cc1 [p-Propyl-benzaldehyde, e]",75,–
"CC(C)c1ccc(C=O)cc1 [p-Isopropylbenzaldehyde, f]",75,–
Cc1ccc(C=O)cc1 [4-Methylbenzaldehyde],120,–
"CCCCc1ccc(C=O)cc1 [p-butyl-benzaldehyde, h]",38,–
"Cc1cccc(C=O)c1 [m-Tolualdehyde, b]",450,290
"CCc1ccc(C=O)cc1 [p-Ethylbenzaldehyde, d]",95,–
"Cc1ccccc1C=O [o-Tolualdehyde, a]",2600,1850

# Second part, led by results:
IC50 [µM],SMILES,Ki [µM]
38,"CC(C)(C)c1ccc(C=O)cc1 [p-Tert-butylbenzaldehyde, g]",–
8.8,"CCCCCCCc1ccc(C=O)cc1 [p-Heptylbenzaldehyde, k]",–
8,"CCCCCCc1ccc(C=O)cc1 [p-Hexylbenzaldehyde, j]",–
10,"CCCCCCCCc1ccc(C=O)cc1 [p-Octylbenzaldehyde, l]",–
13.5,"CCCCCc1ccc(C=O)cc1 [p-Pentylbenzaldehyde, i]",–
